# Entries after “also recorded” stand apart in the source; their conditions may differ.
# Key:
# TAK1 = molecular target: T1, TAK1 (Homo sapiens, UniProt O43318); test: TAK1 LanthaScreen Eu Kinase Binding Assay (Invitrogen; Table 1 calls it TAK1 enzymatic assay)
# T1 construct: purchased Invitrogen (Thermo Fisher Scientific)
# T1 sequence (O43318 with tags, fused parts or gaps limits assumed): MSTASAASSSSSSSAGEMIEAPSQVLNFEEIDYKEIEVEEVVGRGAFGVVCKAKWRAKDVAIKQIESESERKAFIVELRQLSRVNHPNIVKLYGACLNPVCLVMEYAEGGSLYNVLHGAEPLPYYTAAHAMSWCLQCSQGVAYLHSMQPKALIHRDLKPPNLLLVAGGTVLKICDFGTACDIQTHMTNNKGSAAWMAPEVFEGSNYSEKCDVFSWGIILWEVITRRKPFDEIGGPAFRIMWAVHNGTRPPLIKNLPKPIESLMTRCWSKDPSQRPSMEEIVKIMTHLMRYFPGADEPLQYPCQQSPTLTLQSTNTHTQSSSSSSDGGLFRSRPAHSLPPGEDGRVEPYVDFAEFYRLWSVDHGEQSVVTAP
# Procedure: (§1) Kinase assays were performed by Invitrogen (now Thermo Fisher Scientific, Waltham, MA) or Reaction Biology Corp. (Malvern, PA). Inhibitory activity of compounds for TAK1 was evaluated using LanthaScreen® Eu Kinase Binding Assay (Invitrogen, Waltham, MA). The kinase profile of compound 13h was determined by the kinase HotSpot Profiling service of Reaction Biology Corporation. All assays were performed at Km for ATP.
# Table 1. TAK1 enzymatic assay with imidazopyridine derivatives. ^a In-vitro enzymatic assay data obtained from Invitrogen^TM.
# BRAF = molecular target: T2, BRAF (Homo sapiens, UniProt P15056); test: Kinase HotSpot profiling (Reaction Biology Corp.); format: biochemical; conditions: ATP at Km
# T2 construct: purchased Reaction Biology Corp
# Procedure: as §1
# MEK1/MAP2K1 = molecular target: T3, MEK1/MAP2K1 (Homo sapiens, UniProt Q02750); test: Kinase HotSpot profiling (Reaction Biology Corp.); format: biochemical; conditions: ATP at Km
# T3 construct: purchased Reaction Biology Corp
# Procedure: as §1
# MEKK2 = molecular target: T4, MEKK2 (Homo sapiens, UniProt Q9Y2U5); test: Kinase HotSpot profiling (Reaction Biology Corp.); format: biochemical; conditions: ATP at Km
# T4 construct: purchased Reaction Biology Corp
# T4 sequence (Q9Y2U5 1-619): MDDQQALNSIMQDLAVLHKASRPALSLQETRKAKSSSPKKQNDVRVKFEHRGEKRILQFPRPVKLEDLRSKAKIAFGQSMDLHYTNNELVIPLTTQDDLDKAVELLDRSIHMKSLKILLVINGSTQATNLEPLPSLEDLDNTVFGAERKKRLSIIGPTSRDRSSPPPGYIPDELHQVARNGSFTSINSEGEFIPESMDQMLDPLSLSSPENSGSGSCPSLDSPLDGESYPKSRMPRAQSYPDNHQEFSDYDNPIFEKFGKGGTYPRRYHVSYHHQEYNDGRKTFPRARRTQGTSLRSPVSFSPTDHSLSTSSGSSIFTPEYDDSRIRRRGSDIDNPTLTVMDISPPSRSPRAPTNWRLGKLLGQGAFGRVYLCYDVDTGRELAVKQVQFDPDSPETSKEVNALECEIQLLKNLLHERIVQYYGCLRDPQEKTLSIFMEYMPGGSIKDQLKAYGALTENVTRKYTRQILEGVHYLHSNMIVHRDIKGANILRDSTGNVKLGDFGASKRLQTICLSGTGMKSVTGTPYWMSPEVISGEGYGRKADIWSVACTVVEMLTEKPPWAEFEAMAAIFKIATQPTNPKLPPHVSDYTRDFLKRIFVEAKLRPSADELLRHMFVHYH
# Procedure: as §1
# MEKK6 = molecular target: T5, MEKK6 (Homo sapiens, UniProt O95382); test: Kinase HotSpot profiling (Reaction Biology Corp.); format: biochemical; conditions: ATP at Km
# T5 construct: purchased Reaction Biology Corp
# T5 sequence (O95382 1-1288): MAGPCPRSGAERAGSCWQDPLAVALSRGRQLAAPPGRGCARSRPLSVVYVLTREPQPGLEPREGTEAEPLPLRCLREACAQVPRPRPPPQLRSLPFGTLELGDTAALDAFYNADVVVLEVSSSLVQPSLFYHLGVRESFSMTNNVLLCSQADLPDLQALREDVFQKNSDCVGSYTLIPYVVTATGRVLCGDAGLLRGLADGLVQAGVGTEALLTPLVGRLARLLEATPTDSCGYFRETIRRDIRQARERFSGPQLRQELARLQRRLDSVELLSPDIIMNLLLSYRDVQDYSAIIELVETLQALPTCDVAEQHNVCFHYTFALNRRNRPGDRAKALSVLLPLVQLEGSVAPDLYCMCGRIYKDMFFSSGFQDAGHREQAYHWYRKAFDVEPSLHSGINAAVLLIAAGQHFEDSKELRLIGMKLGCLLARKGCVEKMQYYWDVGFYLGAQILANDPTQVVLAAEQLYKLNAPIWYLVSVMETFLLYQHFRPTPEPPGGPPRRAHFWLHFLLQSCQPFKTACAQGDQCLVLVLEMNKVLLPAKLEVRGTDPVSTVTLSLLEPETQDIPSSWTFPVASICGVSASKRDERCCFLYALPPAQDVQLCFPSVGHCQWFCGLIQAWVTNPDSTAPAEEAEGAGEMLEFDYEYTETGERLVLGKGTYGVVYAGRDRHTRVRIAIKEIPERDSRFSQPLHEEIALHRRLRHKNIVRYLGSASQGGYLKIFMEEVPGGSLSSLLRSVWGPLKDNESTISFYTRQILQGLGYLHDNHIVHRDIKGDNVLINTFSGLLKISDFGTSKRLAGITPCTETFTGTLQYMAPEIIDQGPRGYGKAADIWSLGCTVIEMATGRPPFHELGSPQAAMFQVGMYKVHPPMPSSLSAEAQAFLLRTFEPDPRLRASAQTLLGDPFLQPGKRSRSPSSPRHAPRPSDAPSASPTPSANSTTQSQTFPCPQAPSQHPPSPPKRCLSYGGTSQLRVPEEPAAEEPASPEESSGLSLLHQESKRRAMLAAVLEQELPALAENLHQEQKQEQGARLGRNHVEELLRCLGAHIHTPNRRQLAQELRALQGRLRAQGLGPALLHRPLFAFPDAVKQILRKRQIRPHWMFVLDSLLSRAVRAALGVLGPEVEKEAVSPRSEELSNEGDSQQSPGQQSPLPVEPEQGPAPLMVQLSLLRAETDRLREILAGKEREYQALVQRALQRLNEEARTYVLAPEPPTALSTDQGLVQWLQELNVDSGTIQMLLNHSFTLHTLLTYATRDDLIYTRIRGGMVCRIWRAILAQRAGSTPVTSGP
# Procedure: as §1
# MLK1/MAP3K9 = molecular target: T6, MLK1/MAP3K9 (Homo sapiens, UniProt P80192); test: Kinase HotSpot profiling (Reaction Biology Corp.); format: biochemical; conditions: ATP at Km
# T6 construct: purchased Reaction Biology Corp
# Procedure: as §1
# MLK2/MAP3K10 = molecular target: T7, MLK2/MAP3K10 (Homo sapiens, UniProt Q02779); test: Kinase HotSpot profiling (Reaction Biology Corp.); format: biochemical; conditions: ATP at Km
# T7 construct: purchased Reaction Biology Corp
# Procedure: as §1
# ZAK/MLTK = molecular target: T8, ZAK/MLTK (Homo sapiens, UniProt Q9NYL2); test: Kinase HotSpot profiling (Reaction Biology Corp.); format: biochemical; conditions: ATP at Km
# T8 construct: purchased Reaction Biology Corp
# Procedure: as §1
# T6 sequence (P80192 whole entry): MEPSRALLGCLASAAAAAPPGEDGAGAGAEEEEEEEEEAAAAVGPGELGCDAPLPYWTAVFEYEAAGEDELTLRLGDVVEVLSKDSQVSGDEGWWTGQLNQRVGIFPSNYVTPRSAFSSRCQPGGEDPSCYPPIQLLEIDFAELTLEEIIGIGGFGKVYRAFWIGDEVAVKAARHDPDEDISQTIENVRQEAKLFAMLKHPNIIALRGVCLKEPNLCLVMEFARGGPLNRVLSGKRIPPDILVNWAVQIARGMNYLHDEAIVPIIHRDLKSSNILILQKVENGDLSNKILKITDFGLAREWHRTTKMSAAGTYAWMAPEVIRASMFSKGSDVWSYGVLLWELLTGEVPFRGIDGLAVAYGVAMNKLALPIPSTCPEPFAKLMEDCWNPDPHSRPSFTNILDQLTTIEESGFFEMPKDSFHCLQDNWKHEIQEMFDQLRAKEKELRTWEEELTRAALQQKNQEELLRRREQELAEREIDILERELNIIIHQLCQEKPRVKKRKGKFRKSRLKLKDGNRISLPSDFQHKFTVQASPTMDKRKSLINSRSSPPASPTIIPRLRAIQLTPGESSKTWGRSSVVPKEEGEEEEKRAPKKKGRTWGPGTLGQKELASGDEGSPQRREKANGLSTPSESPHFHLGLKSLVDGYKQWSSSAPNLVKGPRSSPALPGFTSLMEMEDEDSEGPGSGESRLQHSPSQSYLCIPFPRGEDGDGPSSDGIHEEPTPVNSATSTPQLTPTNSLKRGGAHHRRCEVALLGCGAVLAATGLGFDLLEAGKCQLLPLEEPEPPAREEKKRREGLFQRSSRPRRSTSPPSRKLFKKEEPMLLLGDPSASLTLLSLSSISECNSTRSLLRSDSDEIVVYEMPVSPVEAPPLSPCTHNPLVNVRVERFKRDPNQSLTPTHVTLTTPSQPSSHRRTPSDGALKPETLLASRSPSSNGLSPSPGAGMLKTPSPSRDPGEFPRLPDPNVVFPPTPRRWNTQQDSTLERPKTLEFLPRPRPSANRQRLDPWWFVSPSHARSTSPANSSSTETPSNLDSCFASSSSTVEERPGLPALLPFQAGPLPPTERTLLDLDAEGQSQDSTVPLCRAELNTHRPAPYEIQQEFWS
# T3 sequence (Q02750 whole entry): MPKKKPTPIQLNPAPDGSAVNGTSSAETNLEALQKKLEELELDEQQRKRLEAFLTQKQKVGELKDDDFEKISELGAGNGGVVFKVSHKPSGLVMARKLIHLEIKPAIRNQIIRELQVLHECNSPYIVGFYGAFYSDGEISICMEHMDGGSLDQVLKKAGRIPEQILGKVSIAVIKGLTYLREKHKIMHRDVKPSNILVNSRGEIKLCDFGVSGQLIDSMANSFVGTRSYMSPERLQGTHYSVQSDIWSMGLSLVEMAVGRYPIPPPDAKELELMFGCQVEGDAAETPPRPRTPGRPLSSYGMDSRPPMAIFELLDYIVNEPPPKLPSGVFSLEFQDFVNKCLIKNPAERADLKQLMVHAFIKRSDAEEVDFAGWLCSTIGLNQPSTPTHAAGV
# T8 sequence (Q9NYL2 whole entry): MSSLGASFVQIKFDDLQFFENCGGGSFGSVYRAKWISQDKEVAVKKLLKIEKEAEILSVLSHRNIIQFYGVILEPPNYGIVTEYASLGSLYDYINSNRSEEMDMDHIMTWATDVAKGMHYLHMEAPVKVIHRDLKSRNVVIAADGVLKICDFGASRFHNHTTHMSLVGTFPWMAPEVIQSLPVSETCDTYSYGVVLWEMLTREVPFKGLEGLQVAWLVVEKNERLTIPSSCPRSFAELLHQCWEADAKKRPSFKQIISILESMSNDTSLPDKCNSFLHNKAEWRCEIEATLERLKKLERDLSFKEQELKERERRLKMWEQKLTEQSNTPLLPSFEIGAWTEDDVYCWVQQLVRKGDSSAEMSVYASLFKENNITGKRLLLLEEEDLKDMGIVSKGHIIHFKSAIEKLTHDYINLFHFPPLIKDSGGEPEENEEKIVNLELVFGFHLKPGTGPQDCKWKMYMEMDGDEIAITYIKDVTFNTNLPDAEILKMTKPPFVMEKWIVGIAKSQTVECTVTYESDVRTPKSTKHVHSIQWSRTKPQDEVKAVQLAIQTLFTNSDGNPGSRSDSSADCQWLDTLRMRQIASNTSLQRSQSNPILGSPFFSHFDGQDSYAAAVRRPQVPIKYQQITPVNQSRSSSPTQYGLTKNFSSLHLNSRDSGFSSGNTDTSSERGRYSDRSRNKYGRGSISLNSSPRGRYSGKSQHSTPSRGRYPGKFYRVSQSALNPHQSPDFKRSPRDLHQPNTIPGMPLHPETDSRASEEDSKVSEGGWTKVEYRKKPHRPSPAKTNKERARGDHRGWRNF
# T7 sequence (Q02779 whole entry): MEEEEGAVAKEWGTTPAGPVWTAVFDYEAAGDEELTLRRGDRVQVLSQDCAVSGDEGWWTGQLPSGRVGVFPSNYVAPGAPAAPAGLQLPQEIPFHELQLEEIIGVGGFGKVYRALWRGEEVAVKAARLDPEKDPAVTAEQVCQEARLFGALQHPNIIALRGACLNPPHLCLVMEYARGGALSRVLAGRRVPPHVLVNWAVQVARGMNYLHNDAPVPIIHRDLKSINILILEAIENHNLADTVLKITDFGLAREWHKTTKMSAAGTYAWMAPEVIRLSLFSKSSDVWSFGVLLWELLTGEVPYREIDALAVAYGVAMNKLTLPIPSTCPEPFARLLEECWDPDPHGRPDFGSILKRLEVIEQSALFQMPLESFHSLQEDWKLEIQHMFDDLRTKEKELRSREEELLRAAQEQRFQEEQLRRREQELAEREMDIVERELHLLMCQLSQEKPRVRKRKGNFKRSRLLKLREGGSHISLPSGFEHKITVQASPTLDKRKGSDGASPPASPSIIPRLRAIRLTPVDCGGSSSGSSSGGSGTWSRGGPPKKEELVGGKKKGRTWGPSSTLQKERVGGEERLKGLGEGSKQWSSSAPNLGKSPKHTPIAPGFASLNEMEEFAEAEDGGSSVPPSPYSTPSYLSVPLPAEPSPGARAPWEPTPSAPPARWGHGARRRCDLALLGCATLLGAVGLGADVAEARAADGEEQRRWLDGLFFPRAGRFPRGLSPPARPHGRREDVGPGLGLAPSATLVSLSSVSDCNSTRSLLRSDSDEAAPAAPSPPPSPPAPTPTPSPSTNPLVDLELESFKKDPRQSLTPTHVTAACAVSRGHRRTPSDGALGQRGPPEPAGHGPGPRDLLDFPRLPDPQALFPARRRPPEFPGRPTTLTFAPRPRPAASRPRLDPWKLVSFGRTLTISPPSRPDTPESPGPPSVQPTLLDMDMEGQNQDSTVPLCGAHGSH
# T2 sequence (P15056 whole entry): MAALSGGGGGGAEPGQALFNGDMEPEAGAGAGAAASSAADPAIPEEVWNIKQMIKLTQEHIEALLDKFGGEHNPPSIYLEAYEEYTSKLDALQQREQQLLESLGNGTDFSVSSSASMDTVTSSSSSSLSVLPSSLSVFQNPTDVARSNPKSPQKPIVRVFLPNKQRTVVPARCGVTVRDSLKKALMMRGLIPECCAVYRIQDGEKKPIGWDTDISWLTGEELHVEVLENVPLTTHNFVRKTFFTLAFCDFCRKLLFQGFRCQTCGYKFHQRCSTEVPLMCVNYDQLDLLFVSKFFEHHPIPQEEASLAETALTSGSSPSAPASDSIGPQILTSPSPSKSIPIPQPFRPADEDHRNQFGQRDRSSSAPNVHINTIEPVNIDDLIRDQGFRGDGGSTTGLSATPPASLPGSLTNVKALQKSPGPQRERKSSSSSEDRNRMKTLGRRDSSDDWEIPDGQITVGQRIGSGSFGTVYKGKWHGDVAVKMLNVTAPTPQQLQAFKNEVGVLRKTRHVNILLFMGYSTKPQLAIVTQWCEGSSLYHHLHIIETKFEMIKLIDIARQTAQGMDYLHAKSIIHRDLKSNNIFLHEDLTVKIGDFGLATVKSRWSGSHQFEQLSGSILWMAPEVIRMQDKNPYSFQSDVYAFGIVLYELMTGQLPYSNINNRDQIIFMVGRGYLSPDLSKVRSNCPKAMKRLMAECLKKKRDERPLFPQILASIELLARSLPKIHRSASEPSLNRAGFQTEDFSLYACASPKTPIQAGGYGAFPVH
smiles,measurement,setting,value
"Cc1cccc(/C=C(\C#N)C(=O)N[C@@H]2CCN(c3c(Cl)cnc4[nH]c(-c5ccc(N6CCN(C)CC6)cc5)nc34)C2)n1 [Compound 13h, (R,E)-N-(1–(6-chloro-2–(4-(4-methylpiperazin-1-yl)phenyl)-3H-imidazo[4,5-b]pyridin-7-yl)pyrrolidin-3-yl)-2-cyano-3-(6-methylpyridin-2-yl)acrylamide]","TAK1 potency, SAR result in words",TAK1; Table 1 SAR discussion,maintained or improved potency; also recorded: excellent
same,IC50,TAK1; read-out: IC50 against TAK1,27 nM
same,inhibition at 1 µM,BRAF,0%
same,inhibition at 1 µM,MEK1/MAP2K1,10 ± 0.7%
same,inhibition at 1 µM,MEKK2,0%
same,inhibition at 1 µM,MEKK6,0%
same,inhibition at 1 µM,MLK1/MAP3K9,35 ± 1.2%
same,inhibition at 1 µM,MLK2/MAP3K10,30 ± 2%
same,inhibition at 1 µM,ZAK/MLTK,29 ± 1.4%
